The source of these data is US12209102B2, “Heterocyclic compounds and uses thereof” (Kumquat Biosciences Inc., priority 2022, dated 2025).

Test [1] deals with GP2D cells. The test is described as follows: Ras cellular assay, growth of cells with K-Ras G12D mutation (CellTiter-Glo). Conditions: cell growth, Example 9, G12D mutation, read-out: IC50 against GP2D cells. The test is classed as cell-based.
In test [2] the test system is A549 cells. Nature of the test: Ras cellular assay, growth of cells with K-Ras G12S mutation (CellTiter-Glo). Particulars: Homo sapiens, cell growth, Example 9, G12S mutation, read-out: IC50 against A549 cells. The test is classed as cell-based. An outline of the steps: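 Growth inhibition IC50 values come from four-parameter fits of CellTiter-Glo luminescence, read about 6 days after compound addition. G12S-mutant A549 cells (e.g. 800/well, RPMI-1640 + 10% heat-inactivated FBS) were plated in tissue-culture-treated or ultra-low-attachment 384-well format. Dosing began the following day with serial dilutions, e.g. 10 points, 3-fold.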

For test [3], the target named is T1, K-Ras G12D (Homo sapiens, UniProt P01116, G12D).
T1 construct: made in house; host or cells: E. coli BL21 (DE3)
Nature of the test: HTRF resonance energy transfer assay, K-Ras G12D / SOS1 interaction. Type of test: biochemical. Conditions: HTRF assay of Example 5; read-out: IC50 against K-Ras G12D. The method, boiled down: (§1)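 Buffer about 5 mM HEPES pH 7.4 with ~150 mM NaCl, ~1 mM DTT, 0.05% BSA, 0.0025% (v/v) Igepal. Protein constructs used at molarity matching the IC50 range studied (e.g. ~500 nM). FRET between tagged K-Ras and hSOS1 measured after short incubation.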

Test [4] deals with T2, K-Ras G12S (Homo sapiens, UniProt P01116, G12S).
T2 construct: made in house; host or cells: E. coli BL21 (DE3)
The test is described as follows: HTRF resonance energy transfer assay, K-Ras G12S / SOS1 interaction. The test is classed as biochemical. Particulars: HTRF assay of Example 5; read-out: IC50 against K-Ras G12S. The method, boiled down:
as §1

In test [5] the target is T3, K-Ras G12V (Homo sapiens, UniProt P01116, G12V).
T3 construct: made in house; host or cells: E. coli BL21 (DE3)
Nature of the test: HTRF resonance energy transfer assay, K-Ras G12V / SOS1 interaction. Type of test: biochemical. Particulars: HTRF assay of Example 5; read-out: IC50 against K-Ras G12V. The method, boiled down: as §1

The target in test [6] is T4, K-Ras WT (Homo sapiens, UniProt P01116).
T4 construct: made in house; host or cells: E. coli BL21 (DE3)
Nature of the test: HTRF resonance energy transfer assay, K-Ras WT / SOS1 interaction. Conditions: HTRF assay of Example 5; read-out: IC50 against K-Ras WT. The test is classed as biochemical. The method, boiled down: as §1

Test [7] has as its system SW620 cells. The test is described as follows: Ras cellular assay, growth of cells with K-Ras G12V mutation (CellTiter-Glo). The test is classed as cell-based. Conditions: Homo sapiens, SW-620; cell growth, Example 9, G12V mutation; read-out: IC50 against SW620 cells. The method, boiled down: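 IC50 values came from a four-parameter fit of CellTiter-Glo viability, read roughly 6 days after dosing with e.g. a 10-point threefold dilution series. G12V-mutant SW620 cells (e.g. 800 per well) had been plated the previous day in RPMI-1640/10% heat-inactivated FBS, on tissue culture-treated or ultra-low attachment plates.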

T2 sequence (P01116 1-188 isoform P01116-2 G12S): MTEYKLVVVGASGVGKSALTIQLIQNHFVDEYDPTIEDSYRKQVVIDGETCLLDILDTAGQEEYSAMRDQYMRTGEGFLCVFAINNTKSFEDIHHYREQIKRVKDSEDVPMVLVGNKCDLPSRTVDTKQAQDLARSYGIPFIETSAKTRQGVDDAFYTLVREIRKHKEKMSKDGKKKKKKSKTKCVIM
T1 sequence (P01116 1-188 isoform P01116-2 G12D): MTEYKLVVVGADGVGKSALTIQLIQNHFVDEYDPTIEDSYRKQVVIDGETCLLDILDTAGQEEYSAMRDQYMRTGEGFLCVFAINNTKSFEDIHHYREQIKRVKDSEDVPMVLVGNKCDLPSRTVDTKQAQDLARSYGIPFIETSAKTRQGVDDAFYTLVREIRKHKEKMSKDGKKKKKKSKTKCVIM
T4 sequence (P01116 1-188 isoform P01116-2): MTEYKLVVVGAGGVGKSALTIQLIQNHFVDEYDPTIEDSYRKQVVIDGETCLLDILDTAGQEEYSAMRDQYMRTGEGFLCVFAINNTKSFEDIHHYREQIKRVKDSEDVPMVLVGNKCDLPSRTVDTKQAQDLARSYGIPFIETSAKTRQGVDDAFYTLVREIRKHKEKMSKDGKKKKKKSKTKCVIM
T3 sequence (P01116 1-188 isoform P01116-2 G12V): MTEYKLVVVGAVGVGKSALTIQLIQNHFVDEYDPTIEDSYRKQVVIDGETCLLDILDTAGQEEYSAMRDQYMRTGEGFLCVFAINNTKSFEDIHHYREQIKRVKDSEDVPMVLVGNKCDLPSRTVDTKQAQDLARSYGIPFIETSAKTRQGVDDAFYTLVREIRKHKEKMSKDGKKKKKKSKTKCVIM

As for `CN(C)C(=O)C1CC(N2CCOc3c(Cl)c(-c4ccc(F)c5sc(N)c(C#N)c45)c(F)c4nc(OC[C@@]56CCCN5C[C@H](F)C6)nc2c34)C1` (single isomer, unassigned) [Compound 640], the IC50 is less than 500 nM in test [1] and less than 5000 nM in test [2].
In the case of `CC1COc2c(Cl)c(-c3ccc(F)c4sc(N)c(C#N)c34)c(F)c3nc(OC[C@@]45CCCN4C[C@H](F)C5)nc(c23)N1CC(F)F` (single isomer, unassigned) [Compound 1073], the half-maximal inhibitory concentration (IC50) in test [1] is less than 500 nM; in test [2] it was less than 5000 nM.
As for `CC[C@H]1COc2c(Cl)c(-c3ccc(F)c4sc(N)c(C#N)c34)c(F)c3nc(OC[C@@]45CCCN4C[C@H](F)C5)nc(c23)N1CC(F)F` [Compound 877, 2-amino-4-((5S)-8-chloro-4-(2,2-difluoroethyl)-5-ethyl-10-fluoro-2-(((2R,7aS)-2-fluorotetrahydro-1H-pyrrolizin-7a(5H)-yl)methoxy)-5,6-dihydro-4H-[1,4]oxazepino[5,6,7-de]quinazolin-9-yl)-7-fluorobenzo[b]thiophene-3-carbonitrile], the IC50 is less than 500 nM in test [1] and less than 5000 nM in test [2].
In the same order, the values of `N#Cc1c(N)sc2c(F)ccc(-c3c(Cl)c4c5c(nc(OC[C@@]67CCCN6C[C@H](F)C7)nc5c3F)N(C3CCCC3O)CCO4)c12` (stereo partly drawn) [Compound 1017, 2-amino-4-(8-chloro-10-fluoro-2-(((2R,7aS)-2-fluorotetrahydro-1H-pyrrolizin-7a(5H)-yl)methoxy)-4-(2-hydroxycyclopentyl)-5,6-dihydro-4H-[1,4]oxazepino[5,6,7-de]quinazolin-9-yl)-7-fluorobenzo[b]thiophene-3-carbonitrile] are less than 500 nM and less than 5000 nM.
As for `CC(C)(O)C1COc2c(Cl)c(-c3ccc(F)c4sc(N)c(C#N)c34)c(F)c3nc(OC[C@@]45CCCN4C[C@H](F)C5)nc(c23)N1CCC(F)F` (stereo partly drawn) [Compound 1050, 2-amino-4-(8-chloro-4-(3,3-difluoropropyl)-10-fluoro-2-(((2R,7aS)-2-fluorotetrahydro-1H-pyrrolizin-7a(5H)-yl)methoxy)-5-(2-hydroxypropan-2-yl)-5,6-dihydro-4H-[1,4]oxazepino[5,6,7-de]quinazolin-9-yl)-7-fluorobenzo[b]thiophene-3-carbonitrile], the IC50 is less than 100 nM in test [3]; less than 100 nM in test [4]; less than 100 nM in test [5]; less than 100 nM in test [6]; less than 500 nM in test [1]; less than 5000 nM in test [7].
As to `N#Cc1c(N)sc2c(F)ccc(-c3c(Cl)c4c5c(nc(OC[C@@]67CCCN6C[C@H](F)C7)nc5c3F)N([C@H]3CNC[C@H]3F)CCO4)c12` [Compound 1070, 2-amino-4-(8-chloro-10-fluoro-4-((3S,4R)-4-fluoropyrrolidin-3-yl)-2-(((2R,7aS)-2-fluorotetrahydro-1H-pyrrolizin-7a(5H)-yl)methoxy)-5,6-dihydro-4H-[1,4]oxazepino[5,6,7-de]quinazolin-9-yl)-7-fluorobenzo[b]thiophene-3-carbonitrile], the IC50 in test [3] was less than 100 nM; in test [4], less than 100 nM; in test [5], less than 100 nM; in test [6] it was less than 100 nM; in test [1], less than 500 nM; in test [7], less than 5000 nM.
In the case of `N#Cc1c(N)sc2c(F)ccc(-c3c(Cl)c4c5c(nc(OC[C@@]67CCCN6C[C@H](F)C7)nc5c3F)N[C@@H](C3(O)CC3)CO4)c12` [Compound 1076, 2-amino-4-((R)-8-chloro-10-fluoro-2-(((2R,7aS)-2-fluorotetrahydro-1H-pyrrolizin-7a(5H)-yl)methoxy)-5-(1-hydroxycyclopropyl)-5,6-dihydro-4H-[1,4]oxazepino[5,6,7-de]quinazolin-9-yl)-7-fluorobenzo[b]thiophene-3-carbonitrile], the half-inhibitory concentration (IC50) in test [3] was less than 100 nM; in test [4], less than 100 nM; in test [5], less than 100 nM; in test [6], less than 100 nM; in test [1], less than 500 nM; in test [7], less than 5000 nM.
`CN1c2nc(OC[C@@]34CCCN3C[C@H](F)C4)nc3c(F)c(-c4ccc(F)c5sc(N)c(C#N)c45)c(Cl)c(c23)OC[C@@H]1CNC=O` [Compound 1097, N-(((5S)-9-(2-amino-3-cyano-7-fluorobenzo[b]thiophen-4-yl)-8-chloro-10-fluoro-2-(((2R,7aS)-2-fluorotetrahydro-1H-pyrrolizin-7a(5H)-yl)methoxy)-4-methyl-5,6-dihydro-4H-[1,4]oxazepino[5,6,7-de]quinazolin-5-yl)methyl)formamide]: the IC50 in test [3] is less than 100 nM; in test [4], less than 100 nM; in test [5] it was less than 100 nM; in test [6] it was less than 100 nM; in test [1] it was less than 500 nM; in test [7], less than 5000 nM.
As for `CC(O)C1COc2c(Cl)c(-c3ccc(F)c4sc(N)c(C#N)c34)c(F)c3nc(OC[C@@]45CCCN4C[C@H](F)C5)nc(c23)N1CC1CCNCC1` (stereo partly drawn) [Compound 1125, 2-amino-4-(8-chloro-10-fluoro-2-(((2R,7aS)-2-fluorotetrahydro-1H-pyrrolizin-7a(5H)-yl)methoxy)-5-(1-hydroxyethyl)-4-(piperidin-4-ylmethyl)-5,6-dihydro-4H-[1,4]oxazepino[5,6,7-de]quinazolin-9-yl)-7-fluorobenzo[b]thiophene-3-carbonitrile], the IC50 in test [3] is less than 100 nM; in test [4] it was less than 100 nM; in test [5], less than 100 nM; in test [6], less than 100 nM; in test [1] it was less than 500 nM; in test [7], less than 5000 nM.
Take `C[C@@H]1CCOc2c(Cl)c(-c3ccc(F)c4sc(N)c(C#N)c34)c(F)c3nc(OC[C@@]45CCCN4C[C@H](F)C5)nc(c23)N1` [Compound 1219, 2-amino-4-((5R)-9-chloro-11-fluoro-2-(((2R,7aS)-2-fluorotetrahydro-1H-pyrrolizin-7a(5H)-yl)methoxy)-5-methyl-4,5,6,7-tetrahydro-[1,5]oxazocino[4,3,2-de]quinazolin-10-yl)-7-fluorobenzo[b]thiophene-3-carbonitrile]: the IC50 in test [3] is less than 100 nM; in test [4], less than 100 nM; in test [5] it was less than 100 nM; in test [6], less than 100 nM; in test [1], less than 500 nM; in test [7], less than 5000 nM.
As for `C[C@@H]1CCOc2c(Cl)c(-c3ccc(F)c4sc(N)c(C#N)c34)c(F)c3nc(OC[C@@]45CCCN4C[C@H](F)C5)nc(c23)N1C` [Compound 1222, 2-amino-4-((R)-9-chloro-11-fluoro-2-(((2R,7aS)-2-fluorotetrahydro-1H-pyrrolizin-7a(5H)-yl)methoxy)-4,5-dimethyl-4,5,6,7-tetrahydro-[1,5]oxazocino[4,3,2-de]quinazolin-10-yl)-7-fluorobenzo[b]thiophene-3-carbonitrile], the IC50 in test [3] is less than 100 nM; in test [4], less than 100 nM; in test [5] it was less than 100 nM; in test [6], less than 100 nM; in test [1], less than 500 nM; in test [7], less than 5000 nM.
